Measured values: patent US20160374979A1, “Method of Treatment of Alopecia with Monoterpenoids” (CELLMID LIMITED, priority 2013, published 2016)

System: murine vibrissae follicles
Assay: Hair shaft elongation of murine vibrissae follicles cultured ex vivo
Parameters: species or system C3H mice
Settings: piperitone 0.1 mg/mL in culture medium
Description: Five week old male C3H mice (supplied by Japan SLC, lnc., Hamamatsu, Japan) were used for isolation of vibrissae follicles. The mice were sacrificed and the vibrissae follicles were carefully dissected from the mystacial pad. Briefly, the mystacial pad was cut into two sides (left and right). The skin cut, picked at the edge by tweezers, was washed in (i) 70% Ethanol for 30 seconds, (ii) PBS for 10 seconds, (iii) fresh PBS for 10 seconds, and (iv) another fresh PBS for 10 seconds. This washing process was repeated twice. After washing, the skin cut was placed inverted to expose the vibrissae follicles in Dulbecco's Modified Eagle's Medium (DMEM; Wako Pure Chemical, Osaka, Japan) at 37° C. Under a dissecting microscope, the surrounding tissue was removed from the follicles using tweezers, carefully so as not to destroy the structure of the follicles. The isolated follicles were then placed immediately into Williams' E medium (Life Technologies, Carlsbad, USA).
From the isolated mouse vibrissae follicles, only early anagen follicles were selected and randomized into groups with 30 follicles per group. […]
Follicles in each of the treatment and control groups were incubated at 37° C. at 5% CO2 for 8 days, while exchanging the respective culture mediums every 2 days. From Day 1, elongation of hair shafts was observed and the elongation length was measured for each hair shaft every 24 hours from Day 1 to Day 8 using a micrometer under microscope. […]
Follicles in each of the treatment and control groups were incubated at 37° C. at 5% CO2 for 5 days, while exchanging the culture medium every 3 days. From Day 1, elongation of hair shafts was observed and the elongation length was measured for each hair shaft every 24 hours from Day 1 to Day 5. using a micrometer under microscope. […]

## CC1=CC(=O)C(C(C)C)CC1 (centres unmarked) [Piperitone, 3-Methyl-6-(propan-2-yl)cyclohex-2-en-1-one]
5 days (FIG. 22)
  hair shaft elongation over time: continued steadily and consistently throughout the culture period
Versus control
  hair growth: increased hair growth
